Experimental data: patent US11046716B2, “Beta-lactamase inhibitors” (priority 2015, dated 2021)

What was measured:
[1] = biological target: T1, SHV-5 (Klebsiella pneumoniae, UniProt P0A3M1); assay: β-lactamase enzyme inhibition assay, SHV-5 (cefotaxime substrate); format: biochemical
T1 construct: made in house; host or cells: E. coli BL21(DE3)
Procedure, shortened: (§1)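 IC50 is the inhibitor level cutting initial substrate hydrolysis rate by 50% relative to no-inhibitor controls, after 15 min enzyme–inhibitor preincubation at 37 °C. KPC-2 read with imipenem at 300 nm, SHV-5 with cefotaxime at 260 nm; enzymes were untagged, E. coli-expressed, chromatographically purified.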

[2] = biological target: T2, KPC-2 (Klebsiella pneumoniae, UniProt Q9F663); assay: β-lactamase enzyme inhibition assay, KPC-2 (imipenem substrate); format: biochemical; conditions: Class A; imipenem substrate, 300 nm; read-out: KPC-2
T2 construct: made in house; host or cells: E. coli BL21(DE3)
T2 sequence (Q9F663 25-293, looked up): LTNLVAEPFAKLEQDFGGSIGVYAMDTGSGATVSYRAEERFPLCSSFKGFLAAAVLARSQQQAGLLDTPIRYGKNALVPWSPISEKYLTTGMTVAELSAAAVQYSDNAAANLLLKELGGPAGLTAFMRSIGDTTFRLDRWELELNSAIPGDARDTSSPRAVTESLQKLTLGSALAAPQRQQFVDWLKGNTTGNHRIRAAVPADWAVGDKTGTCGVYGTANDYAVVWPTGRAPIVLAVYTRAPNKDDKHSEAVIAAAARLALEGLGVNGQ
Procedure, shortened: as §1

[3] = test system: P. aeruginosa expressing the Class B carbapenemase VIM-2; assay: Broth microdilution MIC assay with meropenem, P. aeruginosa VIM-2; format: cell-based; conditions: Fixed Mero (meropenem) 4 μg/mL; P. aerug. 2775 VIM-2
Procedure, shortened: (§2)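 In cation-adjusted Mueller Hinton broth, bacteria pre-grown 3-5 hours were exposed to test compound (2-fold, 16–0.125 μg/mL) plus a static 4 μg/ml β-lactam. A panel of control β-lactams was run alongside, and the compound MIC was judged by eye following 16-20 hours at 37° C.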

[4] = test system: K. pneumoniae expressing the Class A carbapenemase KPC-2; assay: Broth microdilution MIC assay with meropenem, K. pneumoniae KPC-2; format: cell-based; conditions: Fixed Mero (meropenem) 4 μg/mL; K. p. 156319 KPC-3
Procedure, shortened: as §2

[5] = test system: K. pneumoniae expressing the class A carbapenemase KPC-2 and the class B carbapenemase VIM-4; assay: Broth microdilution MIC assay with meropenem, K. pneumoniae KPC-2 and VIM-4; format: cell-based; conditions: Fixed Mero (meropenem) 4 μg/mL; K. p. A-1797 KPC-2 VIM-4
Procedure, shortened: as §2

[6] = biological target: T3, VIM-2 (Escherichia coli, UniProt Q5U7L7); assay: β-lactamase enzyme inhibition assay, VIM-2 (nitrocefin substrate); format: biochemical; conditions: Class B; nitrocefin substrate, 486 nm; read-out: VIM-2
T3 construct: made in house; host or cells: E. coli BL21(DE3)
Procedure, shortened: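 Metallo-β-lactamase VIM-2 activity was tracked spectrophotometrically at 486 nm with 100 μM nitrocefin over 10 min, following 15 min preincubation with compound at 37 °C; inhibition was calculated per concentration.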

[7] = biological target: T4, AmpC (Enterobacter cloacae, UniProt P05364); assay: β-lactamase enzyme inhibition assay, p99 AmpC (nitrocefin substrate); format: biochemical
T4 construct: made in house; host or cells: E. coli BL21(DE3)
T4 sequence (P05364 21-381): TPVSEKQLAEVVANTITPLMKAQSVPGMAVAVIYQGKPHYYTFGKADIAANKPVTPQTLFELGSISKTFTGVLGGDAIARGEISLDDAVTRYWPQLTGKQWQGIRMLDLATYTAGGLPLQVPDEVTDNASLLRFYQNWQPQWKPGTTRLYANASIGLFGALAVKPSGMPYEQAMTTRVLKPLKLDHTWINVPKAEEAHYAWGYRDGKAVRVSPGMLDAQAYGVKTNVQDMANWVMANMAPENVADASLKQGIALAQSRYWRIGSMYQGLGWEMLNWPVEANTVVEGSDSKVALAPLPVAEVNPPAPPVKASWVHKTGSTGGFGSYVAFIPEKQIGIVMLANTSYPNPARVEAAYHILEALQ
Procedure, shortened: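 IC50 is the inhibitor level cutting initial substrate hydrolysis rate by 50% relative to no-inhibitor controls, after 15 min enzyme–inhibitor preincubation at 37 °C. enzymes were untagged, E. coli-expressed, chromatographically purified.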

[8] = test system: E. cloacae expressing the Class C P99; assay: Broth microdilution MIC assay with ceftazidime, E. cloacae P99; format: cell-based; conditions: Fixed CAZ (ceftazidime) 4 μg/mL; E. cl. 144200 p99 AmpC
From the text: To determine the ability of test compounds to potentiate the inhibition of the growth of bacterial strains that produce beta-lactamase enzymes in the presence of a β-lactam antibiotic, classic cell based broth microdilution MIC assays were employed. Six bacteria strains producing beta-lactamase enzymes were used: E. coli expressing the Class A Extended Spectrum Beta-Lactamase (ESBL) CTX-M-15, E. cloacae expressing the Class C P99, K. pneumoniae expressing the Class A carbapenemase KPC-2, P. aeruginosa expressing the Class B carbapenemase VIM-2, K. pneumoniae expressing the class A carbapenemase KPC-2 and the class B carbapenemase VIM-4, and K. pneumoniae producing the Class D carbapenemase OXA-48. The assay was conducted in Cation Adjusted Mueller Hinton Broth (CAMHB, BD #212322, BD Diagnostic Systems, Sparks, Md.). Bacteria strains were grown for 3-5 hours in CAMBH broth. Test compounds (Examples 1-94) were added to a microtiter plate in 2-fold serial dilutions in CAMHB in a final concentration range of 16 μg/mL to 0.125 μg/ml. An overlay of CAMHB containing a Beta-lactam was added to the compounds at a final static concentration of 4 μg/ml. […] In addition to the titration of test compounds the MICs of a panel of control beta-lactams is also tested to ensure the strains are behaving consistently from test to test. Once the test compound and antibiotics are added the plates can be inoculated according to CLSI broth microdilution method. After inoculation the plates are incubated for 16-20 hours at 37° C. then the Minimal Inhibitory Concentration (MIC) of the test compound is determined visually.
Using the methodology described above, examples of the current invention were evaluated for their ability to inhibit the growth of β-lactamase-producing bacteria in the presence of a β-lactam antibiotic.

[9] = biological target: OXA-48 (UniProt Q6XEC0); assay: β-lactamase enzyme inhibition assay, Class D oxacillinase; format: biochemical; conditions: read-out: OXA-48
[10] = test system: K. pneumoniae producing the Class D carbapenemase OXA-48; assay: Broth microdilution MIC assay with meropenem, K. pneumoniae OXA-48; format: cell-based; conditions: Fixed Mero (meropenem) 4 μg/mL; K. p. 11978 OXA-48
Procedure, shortened: as §2

[11] = test system: E. coli expressing the Class A Extended Spectrum Beta-Lactamase (ESBL) CTX-M-15; assay: Broth microdilution MIC assay with ceftazidime, E. coli CTX-M-15; format: cell-based; conditions: Fixed CAZ (ceftazidime) 4 μg/mL; E. coli ESBL4 CTX-M-15
Procedure, shortened: as §2

T1 sequence (P0A3M1 22-286): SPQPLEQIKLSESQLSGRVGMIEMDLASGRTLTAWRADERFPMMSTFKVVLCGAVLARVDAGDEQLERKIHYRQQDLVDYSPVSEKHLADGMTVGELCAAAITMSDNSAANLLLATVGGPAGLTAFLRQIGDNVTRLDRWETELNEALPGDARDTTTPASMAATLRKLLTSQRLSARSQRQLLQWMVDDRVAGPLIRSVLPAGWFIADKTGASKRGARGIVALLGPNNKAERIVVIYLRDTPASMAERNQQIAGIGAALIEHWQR

Row | SMILES | IC50 [1] [nM] | IC50 [2] [nM] | MIC (μg/mL) of Exemplary Compounds in presence of fixed β-lactams: P. aerug. 2775 VIM-2 [3] | MIC (μg/mL) of Exemplary Compounds in presence of fixed β-lactams: K. p. 156319 KPC-3 [4] | MIC (μg/mL) of Exemplary Compounds in presence of fixed β-lactams: K. p. A-1797 KPC-2 VIM-4 [5] | IC50 [6] [nM] | IC50 [7] [nM] | MIC (μg/mL) of Exemplary Compounds in presence of fixed β-lactams: E. cl. 144200 p99 AmpC [8] | IC50 [9] [nM] | MIC (μg/mL) of Exemplary Compounds in presence of fixed β-lactams: K. p. 11978 OXA-48 [10] | MIC (μg/mL) of Exemplary Compounds in presence of fixed β-lactams: E. coli ESBL4 CTX-M-15 [11]
1 | O=C(Cn1cc(CO)nn1)N[C@H]1Cc2cccc(C(=O)O)c2OB1O [Example 1, (R)-2-hydroxy-3-(2-(4-(hydroxymethyl)-1H-1,2,3-triazol-1-yl)acetamido)-3,4-dihydro-2H-benzo[e][1,2]oxaborinine-8-carboxylic acid] | < 100 | < 100 | B (B represents an MIC between 1 and 16 μg/mL inclusive) | B (B represents an MIC between 1 and 16 μg/mL inclusive) | B (B represents an MIC between 1 and 16 μg/mL inclusive) | 1000 to 10000 | < 100 | C (C represents an MIC of <1 μg/mL) | 100 to 1000 | B (B represents an MIC between 1 and 16 μg/mL inclusive) | C (C represents an MIC of <1 μg/mL)
2 | NCc1cn(CC(=O)N[C@H]2Cc3cccc(C(=O)O)c3OB2O)nn1 [Example 2, (R)-3-(2-(4-(aminomethyl)-1H-1,2,3-triazol-1-yl)acetamido)-2-hydroxy-3,4-dihydro-2H-benzo[e][1,2]oxaborinine-8-carboxylic acid] | < 100 | < 100 | C (C represents an MIC of <1 μg/mL) | C (C represents an MIC of <1 μg/mL) | C (C represents an MIC of <1 μg/mL) | < 100 | < 100 | C (C represents an MIC of <1 μg/mL) | 100 to 1000 | B (B represents an MIC between 1 and 16 μg/mL inclusive) | C (C represents an MIC of <1 μg/mL)
3 | N=C(N)NCc1cn(CC(=O)N[C@H]2Cc3cccc(C(=O)O)c3OB2O)nn1 [Example 3, (R)-3-(2-(4-(guanidinomethyl)-1H-1,2,3-triazol-1-yl)acetamido)-2-hydroxy-3,4-dihydro-2H-benzo[e][1,2]oxaborinine-8-carboxylic acid] | < 100 | < 100 | C (C represents an MIC of <1 μg/mL) | C (C represents an MIC of <1 μg/mL) | C (C represents an MIC of <1 μg/mL) | < 100 | < 100 | C (C represents an MIC of <1 μg/mL) | < 100 | C (C represents an MIC of <1 μg/mL) | C (C represents an MIC of <1 μg/mL)
4 | CC(C)NCc1cn(CC(=O)N[C@H]2Cc3cccc(C(=O)O)c3OB2O)nn1 [Example 4, (R)-2-hydroxy-3-(2-(4-((isopropylamino)methyl)-1H-1,2,3-triazol-1-yl)acetamido)-3,4-dihydro-2H-benzo[e][1,2]oxaborinine-8-carboxylic acid] | 100 to 1000 | 100 to 1000 | C (C represents an MIC of <1 μg/mL) | B (B represents an MIC between 1 and 16 μg/mL inclusive) | C (C represents an MIC of <1 μg/mL) | < 100 | < 100 | C (C represents an MIC of <1 μg/mL) | < 100 | B (B represents an MIC between 1 and 16 μg/mL inclusive) | C (C represents an MIC of <1 μg/mL)
5 | CC(C)NCCc1cn(CC(=O)N[C@H]2Cc3cccc(C(=O)O)c3OB2O)nn1 [Example 7, (R)-2-hydroxy-3-(2-(4-(2-(isopropylamino)ethyl)-1H-1,2,3-triazol-1-yl)acetamido)-3,4-dihydro-2H-benzo[e][1,2]oxaborinine-8-carboxylic acid] | 100 to 1000 | 1000 to 10000 | C (C represents an MIC of <1 μg/mL) | C (C represents an MIC of <1 μg/mL) | B (B represents an MIC between 1 and 16 μg/mL inclusive) | 1000 to 10000 | < 100 | C (C represents an MIC of <1 μg/mL) | 1000 to 10000 | B (B represents an MIC between 1 and 16 μg/mL inclusive) | C (C represents an MIC of <1 μg/mL)
6 | O=C(Cn1nnc(CO)c1CO)N[C@H]1Cc2cccc(C(=O)O)c2OB1O [Example 8, (R)-3-(2-(4,5-bis(hydroxymethyl)-1H-1,2,3-triazol-1-yl)acetamido)-2-hydroxy-3,4-dihydro-2H-benzo[e][1,2]oxaborinine-8-carboxylic acid] | < 100 | 100 to 1000 | B (B represents an MIC between 1 and 16 μg/mL inclusive) | B (B represents an MIC between 1 and 16 μg/mL inclusive) | B (B represents an MIC between 1 and 16 μg/mL inclusive) | 1000 to 10000 | 1000 to 10000 | C (C represents an MIC of <1 μg/mL) | 100 to 1000 | B (B represents an MIC between 1 and 16 μg/mL inclusive) | C (C represents an MIC of <1 μg/mL)
7 | O=C(Cn1cc(-c2cccnc2)nn1)N[C@H]1Cc2cccc(C(=O)O)c2OB1O [Example 12, (R)-2-hydroxy-3-(2-(4-(pyridin-3-yl)-1H-1,2,3-triazol-1-yl)acetamido)-3,4-dihydro-2H-benzo[e][1,2]oxaborinine-8-carboxylic acid] | < 100 | < 100 | B (B represents an MIC between 1 and 16 μg/mL inclusive) | B (B represents an MIC between 1 and 16 μg/mL inclusive) | A (A represents an MIC>16 μg/mL) | 1000 to 10000 | < 100 | C (C represents an MIC of <1 μg/mL) | 100 to 1000 | B (B represents an MIC between 1 and 16 μg/mL inclusive) | C (C represents an MIC of <1 μg/mL)
